Reference: patent US20260262643A1, “HERBICIDAL BENZOXAZINES” (FMC CORPORATION, priority 2022, published 2026)

Legend:
[1] = system: barnyardgrass; assay: Test C preemergence; type: in vivo, Echinochloa crusgalli
In short: (§1)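 Pre: seeds in loam/sand, directed soil spray. Post: 1–2 leaf plants, 2–10 cm. Cmpd in non-phytotoxic solvent + surfactant. Greenhouse 10 d; visual rating vs untreated, 0 = none, 100 = complete control.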

[2] = system: blackgrass; assay: Test C preemergence; type: in vivo, Alopecurus myosuroides
In short: as §1

[3] = system: corn; assay: Test C preemergence; type: in vivo, Zea mays
In short: as §1

[4] = system: green foxtail; assay: Test C preemergence; type: in vivo, Setaria viridis
In short: as §1

[5] = system: kochia; assay: Test C preemergence; type: in vivo, Bassia scoparia
In short: as §1

[6] = system: oat, wild; assay: Test C preemergence; type: in vivo, Avena fatua
In short: as §1

[7] = system: pigweed, palmer; assay: Test C preemergence; type: in vivo, Amaranthus palmeri
In short: as §1

[8] = system: ragweed; assay: Test C preemergence; type: in vivo, Ambrosia artemisiifolia
In short: as §1

[9] = system: ryegrass, Italian; assay: Test C preemergence; type: in vivo, Lolium multiflorum
In short: as §1

[10] = system: soybean; assay: Test C preemergence; type: in vivo, Glycine max
In short: as §1

[11] = system: wheat; assay: Test C preemergence; type: in vivo, Triticum aestivum
In short: as §1

[12] = system: barnyardgrass; assay: Test C postemergence; type: in vivo, Echinochloa crusgalli; conditions: 10 days, 0 to 100 scale (0 no effect, 100 complete control)
In short: as §1

[13] = system: blackgrass; assay: Test C postemergence; type: in vivo, Alopecurus myosuroides; conditions: 10 days, 0 to 100 scale (0 no effect, 100 complete control)
In short: as §1

[14] = system: corn; assay: Test C postemergence; type: in vivo, Zea mays; conditions: 10 days, 0 to 100 scale (0 no effect, 100 complete control)
In short: as §1

[15] = system: green foxtail; assay: Test C postemergence; type: in vivo, Setaria viridis; conditions: 10 days, 0 to 100 scale (0 no effect, 100 complete control)
In short: as §1

[16] = system: kochia; assay: Test C postemergence; type: in vivo, Bassia scoparia; conditions: 10 days, 0 to 100 scale (0 no effect, 100 complete control)
In short: as §1

[17] = system: oat, wild; assay: Test C postemergence; type: in vivo, Avena fatua; conditions: 10 days, 0 to 100 scale (0 no effect, 100 complete control)
In short: as §1

[18] = system: pigweed, palmer; assay: Test C postemergence; type: in vivo, Amaranthus palmeri; conditions: 10 days, 0 to 100 scale (0 no effect, 100 complete control)
In short: as §1

[19] = system: ragweed; assay: Test C postemergence; type: in vivo, Ambrosia artemisiifolia; conditions: 10 days, 0 to 100 scale (0 no effect, 100 complete control)
In short: as §1

[20] = system: ryegrass, Italian; assay: Test C postemergence; type: in vivo, Lolium multiflorum; conditions: 10 days, 0 to 100 scale (0 no effect, 100 complete control)
In short: as §1

[21] = system: soybean; assay: Test C postemergence; type: in vivo, Glycine max; conditions: 10 days, 0 to 100 scale (0 no effect, 100 complete control)
In short: as §1

[22] = system: wheat; assay: Test C postemergence; type: in vivo, Triticum aestivum; conditions: 10 days, 0 to 100 scale (0 no effect, 100 complete control)
In short: as §1

[23] = system: galium; assay: Test C postemergence; type: in vivo, Galium aparine; conditions: 10 days, 0 to 100 scale (0 no effect, 100 complete control)
In short: as §1

[24] = system: horseweed; assay: Test C postemergence; type: in vivo, Erigeron canadensis; conditions: 10 days, 0 to 100 scale (0 no effect, 100 complete control)
In short: as §1

[25] = system: barnyardgrass; assay: Test D flooded paddy test; type: in vivo, Echinochloa crus-galli; conditions: 250 g ai/ha, applied to paddy water, visual rating after 13 to 14 days, scale 0 to 100 (0 no effect, 100 complete control)
In short: (§2)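 Post-flood water application at the 2-leaf stage; 3 cm flood depth kept constant; visual control rating 0–100 after 13–14 days greenhouse growth.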

[26] = system: ducksalad; assay: Test D flooded paddy test; type: in vivo, Heteranthera limosa; conditions: 250 g ai/ha, applied to paddy water, visual rating after 13 to 14 days, scale 0 to 100 (0 no effect, 100 complete control)
In short: as §2

[27] = system: rice; assay: Test D flooded paddy test; type: in vivo, Oryza sativa; conditions: 250 g ai/ha, applied to paddy water, visual rating after 13 to 14 days, scale 0 to 100 (0 no effect, 100 complete control)
In short: as §2

[28] = system: sedge, umbrella; assay: Test D flooded paddy test; type: in vivo, Cyperus difformis; conditions: 250 g ai/ha, applied to paddy water, visual rating after 13 to 14 days, scale 0 to 100 (0 no effect, 100 complete control)
In short: as §2

[29] = 500 g ai/ha, preemergence, 0 to 100 scale (0 no effect, 100 complete control)
[30] = Preemergence, 125 g ai/ha, 0 to 100 scale, 0 no effect, 100 complete control

CCOCC1CN(C(=O)c2cc(-n3cnc(C(C)(C)C)n3)ccc2OC)c2cccc(Cl)c2O1 (stereo not shown) [Compound 379]
Barnyardgrass plant response rating [1, 29]: 100
Plant response rating, Barnyardgrass [1, 30]: 60
Blackgrass plant response rating [2, 29]: 0
Plant response rating, Blackgrass [2, 30]: 0
Corn plant response rating [3, 29]: 30
Plant response rating, Corn [3, 30]: 30
Foxtail, Green plant response rating [4, 29]: 100
Plant response rating, Foxtail, Green [4, 30]: 80
Kochia plant response rating [5, 29]: 100
Plant response rating, Kochia [5, 30]: 80
Oat, Wild plant response rating [6, 29]: 80
Plant response rating, Oat, Wild [6, 30]: 30
Pigweed, Palmer plant response rating [7, 29]: 100
Plant response rating, Pigweed, Palmer [7, 30]: 100
Ragweed plant response rating [8, 29]: 80
Plant response rating, Ragweed [8, 30]: 0
Ryegrass, Italian plant response rating [9, 29]: 90
Plant response rating, Ryegrass, Italian [9, 30]: 70
Soybean plant response rating [10, 29]: 90
Plant response rating, Soybean [10, 30]: 90
Wheat plant response rating [11, 29]: 40
Plant response rating, Wheat [11, 30]: 20
Plant response rating, Barnyardgrass ([12]; 500 g ai/ha, postemergence): 60
Plant response rating, Barnyardgrass ([12]; Postemergence, 125 g ai/ha): 30
Plant response rating, Blackgrass ([13]; 500 g ai/ha, postemergence): 30
Plant response rating, Blackgrass ([13]; Postemergence, 125 g ai/ha): 30
Plant response rating, Corn ([14]; 500 g ai/ha, postemergence): 50
Plant response rating, Corn ([14]; Postemergence, 125 g ai/ha): 30
Plant response rating, Foxtail, Green ([15]; 500 g ai/ha, postemergence): 20
Plant response rating, Foxtail, Green ([15]; Postemergence, 125 g ai/ha): 20
Plant response rating, Kochia ([16]; 500 g ai/ha, postemergence): 90
Plant response rating, Kochia ([16]; Postemergence, 125 g ai/ha): 90
Plant response rating, Oat, Wild ([17]; 500 g ai/ha, postemergence): 10
Plant response rating, Oat, Wild ([17]; Postemergence, 125 g ai/ha): 0
Plant response rating, Pigweed, Palmer ([18]; 500 g ai/ha, postemergence): 100
Plant response rating, Pigweed, Palmer ([18]; Postemergence, 125 g ai/ha): 80
Plant response rating, Ragweed ([19]; 500 g ai/ha, postemergence): 90
Plant response rating, Ragweed ([19]; Postemergence, 125 g ai/ha): 30
Plant response rating, Ryegrass, Italian ([20]; 500 g ai/ha, postemergence): 50
Plant response rating, Ryegrass, Italian ([20]; Postemergence, 125 g ai/ha): 30
Plant response rating, Soybean ([21]; 500 g ai/ha, postemergence): 100
Plant response rating, Soybean ([21]; Postemergence, 125 g ai/ha): 100
Plant response rating, Wheat ([22]; 500 g ai/ha, postemergence): 20
Plant response rating, Wheat ([22]; Postemergence, 125 g ai/ha): 10
Plant response rating, Galium ([23]; 500 g ai/ha, postemergence): 100
Plant response rating, Galium ([23]; Postemergence, 125 g ai/ha): 70
Plant response rating, Horseweed ([24]; 500 g ai/ha, postemergence): 30
Plant response rating, Horseweed ([24]; Postemergence, 125 g ai/ha): 0
Plant response rating, Barnyardgrass (Flood) [25]: 35
Plant response rating, Ducksalad (Flood) [26]: 55
Plant response rating, Rice (Flood) [27]: 15
Plant response rating, Sedge, Umbrella (Flood) [28]: 65
